Laboratory results reported in US9963467B2, “Boronic acid derivatives and therapeutic uses thereof” (Rempex Pharmaceuticals, Inc., priority 2014, dated 2018).

What was measured:
[1] = Intravenous pharmacokinetics; assay type: in vivo; conditions: rat, plasma; rats, 20 mg/kg, intravenous infusion over 0.5 hours; read-out: Free Cl (converted)
Method: Rats (n=3 per compound) were administered by a single infusion. Intravenous doses were infused over 0.5 hours via an indwelling femoral vein cannula. […] (˜0.3 mL) samples were collected from each rat at designated time points up to 24 hours. Blood samples were centrifuged within 5 min of collection at 12000 g for 5 min to obtain plasma. The plasma samples were stored at −80° C. until analyzed. Data were analyzed using WinNonlin. The doses of all compounds tested were 20 mg/kg.

CTX-M-14 = CTX-M-14 (Escherichia coli, UniProt Q9L5C7); assay: Ki, nitrocefin cleavage by purified enzyme, CTX-M-14; assay type: biochemical; conditions: nitrocefin reporter substrate; read-out: Ki (CTX-M-14, NCF)
Outline: (§1)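 Readout: nitrocefin hydrolysis, A490 recorded every 10 sec over 10 min. Enzyme and inhibitor (varied concentrations) preincubated 10 min, RT, in reaction buffer before substrate addition.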

KPC-2 = KPC-2 (Klebsiella pneumoniae, UniProt Q9F663); assay: Ki, nitrocefin cleavage by purified enzyme, KPC-2; assay type: biochemical; conditions: nitrocefin reporter substrate; read-out: Ki (KPC-2, NCF)
Outline: as §1

KP1009 (CTX-M-15) = assay: Tigemonam potentiation (MPC@4), KP1009; assay type: cell-based; conditions: BLI with tigemonam at 4 μg/mL
P99 = P99 (Enterobacter cloacae, UniProt P05364); assay: Ki, nitrocefin cleavage by purified enzyme, P99; assay type: biochemical; conditions: nitrocefin reporter substrate; read-out: Ki (P99, NCF)
Outline: as §1

KP1010 (SHV-12) [2] = assay: Tigemonam potentiation (MPC@4), KP1010; assay type: cell-based
ec308 (SHV-5) [3] = assay: Tigemonam potentiation (MPC@4), ec308; assay type: cell-based
EC1010 (CMY-6) [4] = assay: Tigemonam potentiation (MPC@4), EC1010; assay type: cell-based; conditions: BLI with tigemonam at 4 μg/mL
KP1004 (KPC-2) [5] = assay: Biapenem potentiation (MPC@1), KP1004; conditions: BLI with biapenem at 1 μg/mL
KP1005 (CTX-M-14) [6] = assay: Tigemonam potentiation (MPC@4), KP1005; assay type: cell-based; conditions: BLI with tigemonam at 4 μg/mL
SHV-12 = SHV-12 (Klebsiella pneumoniae, UniProt P0AD64, E235K/G234S/L31Q); assay: Ki, nitrocefin cleavage by purified enzyme, SHV-12; assay type: biochemical; conditions: nitrocefin reporter substrate; read-out: Ki (SHV-12, NCF)
Outline: as §1

[7] = Monomer content of pH adjusted aqueous solutions (LC-UV); assay type: physicochemical; conditions: pH adjusted to 7.6 to 8, LC-UV
Outline: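 Aqueous solutions at 1.00, 10.0 or 100 mg/mL (active fraction) brought to pH 7.6–8 with acid or base, compound fully dissolved. Injected within half an hour of preparation onto C18 reversed-phase LC (0.1% TFA water / 0.085% TFA methanol gradient); UV detection at 220, 254 and 300 nm.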

Pa AmpC = Pa AmpC (Pseudomonas aeruginosa, UniProt P24735); assay: Ki, nitrocefin cleavage by purified enzyme, Pa AmpC; assay type: biochemical; conditions: nitrocefin reporter substrate; read-out: Ki (Pa AmpC, NCF)
Outline: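 Ki derived spectrophotometrically: after adding nitrocefin, absorbance at 490 nm recorded every 10 sec over 10 min. Each purified enzyme had first been incubated with inhibitor at several concentrations for 10 min at room temperature.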

KP1086 (OXA-48) = assay: Biapenem potentiation (MPC@1), KP1086; conditions: BLI with biapenem at 1 μg/mL
ECL1002 [8] = assay: Tigemonam potentiation (MPC@4), ECL1002; assay type: cell-based; conditions: BLI with tigemonam at 4 μg/mL
ec302 (TEM-10) [9] = assay: Aztreonam potentiation (MPC@4), ec302; assay type: cell-based; conditions: BLI with aztreonam at 4 μg/mL
KP1004 (KPC-2) [10] = assay: Aztreonam potentiation (MPC@4), KP1004; assay type: cell-based; conditions: BLI with aztreonam at 4 μg/mL
ec302 (TEM-10) [11] = assay: Tigemonam potentiation (MPC@4), ec302; assay type: cell-based
OXA-48 = OXA-48 (Klebsiella pneumoniae, UniProt Q6XEC0); assay: Ki, nitrocefin cleavage by purified enzyme, OXA-48; assay type: biochemical; conditions: nitrocefin reporter substrate; read-out: Ki (OXA-48, NCF)
Outline: as §1

EC1010 (CMY-6) [12] = assay: organism not typed; assay type: cell-based
ECL1002 [13] = assay: Aztreonam potentiation (MPC@4), ECL1002; assay type: cell-based; conditions: BLI with aztreonam at 4 μg/mL
PAM1032/KPC-2 = assay: Biapenem potentiation MPC64, PAM1032/KPC-2 (efflux proficient); assay type: cell-based, Pseudomonas aeruginosa; conditions: BLI to decrease MIC of biapenem 64-fold; MexAB-OprM overexpressed
Method: Efflux of BLIs from Pseudomonas aeruginosa by the MexAB-OprM efflux pump was also evaluated. […] Due to expression of KPC-2 both strains became resistant to biapenem. […] Potency of BLIs to potentiate biapenem in these strains was determined. […] The ratio of MPC64 values for each BLI in PAM1032/KPC-2 (efflux proficient) and PAM1154/KPC-2 (efflux deficient) was determined to generate the Efflux Index (EI).

ec308 (SHV-5) [14] = assay: Aztreonam potentiation (MPC@4), ec308; assay type: cell-based; conditions: BLI with aztreonam at 4 μg/mL
KP1005 (CTX-M-14) [15] = assay: Aztreonam potentiation (MPC@4), KP1005; assay type: cell-based; conditions: BLI with aztreonam at 4 μg/mL
KP1010 (SHV-12) [16] = assay: Aztreonam potentiation (MPC@4), KP1010; assay type: cell-based

Chain of P99 (P05364 21-381): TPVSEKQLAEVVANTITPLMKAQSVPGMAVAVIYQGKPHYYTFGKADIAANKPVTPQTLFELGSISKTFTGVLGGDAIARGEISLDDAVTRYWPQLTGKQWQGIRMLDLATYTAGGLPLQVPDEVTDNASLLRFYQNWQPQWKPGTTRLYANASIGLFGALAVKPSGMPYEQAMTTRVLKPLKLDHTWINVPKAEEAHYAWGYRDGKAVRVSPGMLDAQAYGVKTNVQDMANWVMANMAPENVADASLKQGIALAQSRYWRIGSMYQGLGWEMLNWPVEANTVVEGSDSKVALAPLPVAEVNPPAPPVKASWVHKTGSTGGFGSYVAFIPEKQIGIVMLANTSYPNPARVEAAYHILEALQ
Chain of Pa AmpC (P24735 27-397): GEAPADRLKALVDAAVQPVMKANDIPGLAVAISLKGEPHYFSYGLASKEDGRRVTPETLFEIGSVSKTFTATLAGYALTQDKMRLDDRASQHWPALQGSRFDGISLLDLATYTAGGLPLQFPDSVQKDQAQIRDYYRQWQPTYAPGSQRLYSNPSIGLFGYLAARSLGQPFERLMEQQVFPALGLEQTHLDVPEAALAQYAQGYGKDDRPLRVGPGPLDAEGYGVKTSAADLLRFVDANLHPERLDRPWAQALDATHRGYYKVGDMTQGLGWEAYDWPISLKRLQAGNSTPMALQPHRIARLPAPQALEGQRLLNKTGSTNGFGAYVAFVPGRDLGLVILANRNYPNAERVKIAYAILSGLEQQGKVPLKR
Chain of OXA-48 (Q6XEC0 23-265, looked up, species assumed): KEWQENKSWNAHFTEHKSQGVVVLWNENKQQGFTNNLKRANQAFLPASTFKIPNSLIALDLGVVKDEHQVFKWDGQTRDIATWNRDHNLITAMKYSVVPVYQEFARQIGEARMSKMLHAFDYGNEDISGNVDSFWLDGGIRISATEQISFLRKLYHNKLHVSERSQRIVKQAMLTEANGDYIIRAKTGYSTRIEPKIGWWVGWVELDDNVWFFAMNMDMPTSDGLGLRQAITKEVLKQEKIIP
Chain of KPC-2 (Q9F663 25-293, looked up, species assumed): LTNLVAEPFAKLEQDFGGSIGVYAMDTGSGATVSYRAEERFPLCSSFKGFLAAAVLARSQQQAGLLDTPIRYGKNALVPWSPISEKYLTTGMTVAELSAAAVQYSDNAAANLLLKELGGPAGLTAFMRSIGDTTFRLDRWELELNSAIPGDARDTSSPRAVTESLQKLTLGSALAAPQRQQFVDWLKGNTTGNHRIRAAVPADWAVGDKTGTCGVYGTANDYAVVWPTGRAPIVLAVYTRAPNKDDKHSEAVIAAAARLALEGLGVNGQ
Chain of CTX-M-14 (Q9L5C7 29-291): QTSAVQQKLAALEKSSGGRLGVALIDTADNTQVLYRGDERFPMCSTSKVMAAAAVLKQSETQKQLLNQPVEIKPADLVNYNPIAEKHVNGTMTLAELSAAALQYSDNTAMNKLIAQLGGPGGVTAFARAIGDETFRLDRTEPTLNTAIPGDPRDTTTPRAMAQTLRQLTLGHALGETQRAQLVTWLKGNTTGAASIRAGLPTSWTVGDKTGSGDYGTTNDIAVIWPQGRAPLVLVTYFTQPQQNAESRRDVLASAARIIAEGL
Chain of SHV-12 (P0AD64 22-286 L31Q/G234S/E235K): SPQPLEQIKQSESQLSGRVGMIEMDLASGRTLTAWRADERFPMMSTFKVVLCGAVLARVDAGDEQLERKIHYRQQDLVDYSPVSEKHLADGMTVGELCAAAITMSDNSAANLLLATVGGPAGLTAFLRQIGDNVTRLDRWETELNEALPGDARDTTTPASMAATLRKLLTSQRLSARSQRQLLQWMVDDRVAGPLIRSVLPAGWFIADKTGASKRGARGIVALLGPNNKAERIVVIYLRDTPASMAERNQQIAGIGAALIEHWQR

| SMILES | clearance [1] [mL/min/kg] | Ki (CTX-M-14) [nM] | Ki (KPC-2) [nM] | TIG MPC4 CTX-M-15 KP1009 (KP1009 (CTX-M-15)) | Ki (P99) [nM] | TIG MPC4 SHV-12 KP1010 (KP1010 (SHV-12) [2]) | TIG MPC4 SHV-5 ec308 (ec308 (SHV-5) [3]) | TIG MPC4 CMY-6 EC1010 (EC1010 (CMY-6) [4]) | BPM MPC1 KP1004 KPC-2 (KP1004 (KPC-2) [5]) | TIG MPC4 CTX-M-14 KP1005 (KP1005 (CTX-M-14) [6]) | Ki (SHV-12) [nM] | Ki (Pa AmpC) [nM] | BPM MPC1 OXA-48 KP1086 (KP1086 (OXA-48)) | TIG MPC4 ECL1002 (ECL1002 [8]) | AZT MPC4 TEM-10 ec302 (ec302 (TEM-10) [9]) | TIG MPC4 TEM-10 ec302 (ec302 (TEM-10) [11]) | Ki (OXA-48) [nM] | AZT MPC4 CMY-6 EC1010 (EC1010 (CMY-6) [12]) | AZT MPC4 ECL1002 (ECL1002 [13]) | also measured |
| --- | --- | --- | --- | --- | --- | --- | --- | --- | --- | --- | --- | --- | --- | --- | --- | --- | --- | --- | --- | --- |
| COc1ccc2c(c1C(=O)O)OB(O)[C@@H](NC(=O)Cc1cccs1)C2 [Compound 29, (R)-2-hydroxy-7-methoxy-3-(2-(thiophen-2-yl)acetamido)-3,4-dihydro-2H-benzo[e][1,2]oxaborinine-8-carboxylic acid] | 11.2 | < 1 | 1 to 10 | X (MIC of less than 1 μg/mL) | 1 to 10 | X (key: X: MIC of less than 1 μg/mL; Y: MIC of 1 μg/mL to 10 μg/mL; Z: MIC of greater than 10 μg/mL) | X (key: X: MIC of less than 1 μg/mL; Y: MIC of 1 μg/mL to 10 μg/mL; Z: MIC of greater than 10 μg/mL) | X (MIC of less than 1 μg/mL) | X (MIC of less than 1 μg/mL) | X (MIC of less than 1 μg/mL) | < 1 | 1 to 10 | Y (MIC of 1 μg/mL to 10 μg/mL) | X (MIC of less than 1 μg/mL) | X (MIC of less than 1 ng/mL) | Y (key: X: MIC of less than 1 ng/mL; Y: MIC of 1 μg/mL to 10 μg/mL; Z: MIC of greater than 10 μg/mL) | < 1 | – | – | % Monomer in 1 mg/mL salt solution ([7]; 1 mg/mL aqueous salt solution): 99.4%; % Monomer in 10 mg/mL salt solution ([7]; 10 mg/mL aqueous salt solution): 98.6%; % Monomer in 100 mg/mL salt solution ([7]; 100 mg/mL aqueous salt solution): 67.0%; AZT MPC4 KPC-2 KP1004 (KP1004 (KPC-2) [10]): Y (MIC of 1 μg/mL to 10 μg/mL) |
| O=C(CSC1CNC1)N[C@H]1Cc2ccc(F)c(C(=O)O)c2OB1O [Compound 2, (R)-3-(2-(azetidin-3-ylthio)acetamido)-7-fluoro-2-hydroxy-3,4-dihydro-2H-benzo[e][1,2]oxaborinine-8-carboxylic acid] | 10.2 | < 1 | > 10 | X (MIC of less than 1 μg/mL) | > 10 | X (key: X: MIC of less than 1 μg/mL; Y: MIC of 1 μg/mL to 10 μg/mL; Z: MIC of greater than 10 μg/mL) | X (key: X: MIC of less than 1 μg/mL; Y: MIC of 1 μg/mL to 10 μg/mL; Z: MIC of greater than 10 μg/mL) | X (MIC of less than 1 μg/mL) | X (MIC of less than 1 μg/mL) | X (MIC of less than 1 μg/mL) | < 1 | > 10 | Y (MIC of 1 μg/mL to 10 μg/mL) | X (MIC of less than 1 μg/mL) | Y (MIC of 1 μg/mL to 10 μg/mL) | Y (key: X: MIC of less than 1 ng/mL; Y: MIC of 1 μg/mL to 10 μg/mL; Z: MIC of greater than 10 μg/mL) | > 10 | Y (key: X: MIC of less than 1 ng/mL; Y: MIC of 1 μg/mL to 10 μg/mL; Z: MIC of greater than 10 μg/mL) | Y (MIC of 1 μg/mL to 10 μg/mL) | – |
| O=C(CSC(F)F)N[C@H]1Cc2cccc(C(=O)O)c2OB1O [C, reference compound] | – | – | – | X (MIC of less than 1 μg/mL) | 1 to 10 | X (key: X: MIC of less than 1 μg/mL; Y: MIC of 1 μg/mL to 10 μg/mL; Z: MIC of greater than 10 μg/mL) | X (key: X: MIC of less than 1 μg/mL; Y: MIC of 1 μg/mL to 10 μg/mL; Z: MIC of greater than 10 μg/mL) | – | X (MIC of less than 1 μg/mL) | X (MIC of less than 1 μg/mL) | – | < 1 | Y (MIC of 1 μg/mL to 10 μg/mL) | Y (MIC of 1 μg/mL to 10 μg/mL) | – | Y (key: X: MIC of less than 1 ng/mL; Y: MIC of 1 μg/mL to 10 μg/mL; Z: MIC of greater than 10 μg/mL) | – | X (key: X: MIC of less than 1 ng/mL; Y: MIC of 1 μg/mL to 10 μg/mL; Z: MIC of greater than 10 μg/mL) | Y (MIC of 1 μg/mL to 10 μg/mL) | PAM1032/KPC-2 Biapenem MPC64 (PAM1032/KPC-2): 80; AZT MPC4 SHV-5 ec308 (ec308 (SHV-5) [14]): X (MIC of less than 1 ng/mL); AZT MPC4 CTX-M-14 KP1005 (KP1005 (CTX-M-14) [15]): X (MIC of less than 1 ng/mL); AZT MPC4 SHV-12 KP1010 (KP1010 (SHV-12) [16]): X (key: X: MIC of less than 1 ng/mL; Y: MIC of 1 μg/mL to 10 μg/mL; Z: MIC of greater than 10 μg/mL) |
